From the NIST ThermoML archive (doi:10.1016/j.jct.2016.09.005)
± gives the expanded uncertainty stated by the source.

Conditions: Brillouin Light Scattering

CC(C)OC(C)C [diisopropyl ether]
Conditions	speed of sound [m/s]
432.85 K, 1000 kPa, Liquid	434.31 ± 6.1
433.18 K, 2500 kPa, Liquid	464.16 ± 6.5
433.27 K, 4000 kPa, Liquid	498.85 ± 7
437.97 K, 5500 kPa, Liquid	515.55 ± 7.4
438.45 K, 8500 kPa, Liquid	566.84 ± 8.1
438.48 K, 10000 kPa, Liquid	599.89 ± 8.5
438.69 K, 7000 kPa, Liquid	537.87 ± 7.6
438.94 K, 2500 kPa, Liquid	440.93 ± 6.2
439.03 K, 4000 kPa, Liquid	475.92 ± 6.7
442.55 K, 7000 kPa, Liquid	521.69 ± 7.4
442.6 K, 4000 kPa, Liquid	461.81 ± 6.5
442.85 K, 8500 kPa, Liquid	551.1 ± 7.9
442.96 K, 10000 kPa, Liquid	583.95 ± 8.3
443.09 K, 5500 kPa, Liquid	494.52 ± 7.1
443.48 K, 2500 kPa, Liquid	424.11 ± 6
447.46 K, 2500 kPa, Liquid	407.02 ± 5.8
447.46 K, 10000 kPa, Liquid	569.2 ± 8.2
447.74 K, 5500 kPa, Liquid	476.22 ± 6.9
448.06 K, 8500 kPa, Liquid	530.98 ± 7.6
448.43 K, 4000 kPa, Liquid	436.29 ± 6.2
448.7 K, 7000 kPa, Liquid	505.01 ± 7.2
453.11 K, 2500 kPa, Liquid	380.57 ± 5.4
453.12 K, 5500 kPa, Liquid	456.86 ± 6.7
453.5 K, 4000 kPa, Liquid	418.12 ± 6
453.57 K, 10000 kPa, Liquid	548.35 ± 7.8
453.75 K, 8500 kPa, Liquid	518.95 ± 7.4
454.24 K, 7000 kPa, Liquid	488.02 ± 7
457.15 K, 2500 kPa, Liquid	366.77 ± 5.2
457.57 K, 10000 kPa, Liquid	539.84 ± 7.7
457.63 K, 8500 kPa, Liquid	503.76 ± 7.2
457.7 K, 7000 kPa, Liquid	475.35 ± 6.8
457.87 K, 4000 kPa, Liquid	397.64 ± 5.7
458.03 K, 5500 kPa, Liquid	440.35 ± 6.5
462.93 K, 4000 kPa, Liquid	377.89 ± 5.4
463.16 K, 7000 kPa, Liquid	457.86 ± 6.7
463.6 K, 8500 kPa, Liquid	488.56 ± 7
463.85 K, 10000 kPa, Liquid	521.08 ± 7.5
463.88 K, 2500 kPa, Liquid	338.04 ± 4.9
464.11 K, 5500 kPa, Liquid	418.4 ± 6.2
467.52 K, 5500 kPa, Liquid	406.91 ± 6.1
467.53 K, 10000 kPa, Liquid	508.72 ± 7.3
467.58 K, 7000 kPa, Liquid	440.63 ± 6.4
467.74 K, 8500 kPa, Liquid	473.19 ± 6.8
468.21 K, 4000 kPa, Liquid	357.71 ± 5.2
472.64 K, 8500 kPa, Liquid	459.74 ± 6.7
472.67 K, 7000 kPa, Liquid	424.62 ± 6.3
472.84 K, 5500 kPa, Liquid	384.97 ± 5.8
472.94 K, 4000 kPa, Liquid	339.72 ± 4.9
473.24 K, 10000 kPa, Liquid	491.15 ± 7.1
505.6 K, 3500 kPa, Fluid (supercritical or subcritical phases)	132.11 ± 4
505.8 K, 4500 kPa, Fluid (supercritical or subcritical phases)	215.46 ± 4.1
506.21 K, 5500 kPa, Fluid (supercritical or subcritical phases)	263.63 ± 5.2
506.39 K, 6500 kPa, Fluid (supercritical or subcritical phases)	301.19 ± 5.3
509.39 K, 3500 kPa, Fluid (supercritical or subcritical phases)	114.34 ± 3.7
509.87 K, 4500 kPa, Fluid (supercritical or subcritical phases)	196.58 ± 3.9
510.29 K, 5500 kPa, Fluid (supercritical or subcritical phases)	244.35 ± 5
510.5 K, 6500 kPa, Fluid (supercritical or subcritical phases)	281.9 ± 5.2
516.22 K, 3500 kPa, Fluid (supercritical or subcritical phases)	102.13 ± 2.8
516.95 K, 6500 kPa, Fluid (supercritical or subcritical phases)	262.61 ± 5.4
517.48 K, 4500 kPa, Fluid (supercritical or subcritical phases)	161.27 ± 3.4
518.73 K, 5500 kPa, Fluid (supercritical or subcritical phases)	206.26 ± 5
519.67 K, 3500 kPa, Fluid (supercritical or subcritical phases)	108 ± 2.3
520.35 K, 4500 kPa, Fluid (supercritical or subcritical phases)	144.87 ± 3
521.7 K, 5500 kPa, Fluid (supercritical or subcritical phases)	199.75 ± 5.1
522.21 K, 6500 kPa, Fluid (supercritical or subcritical phases)	243.32 ± 5.1
526.46 K, 3500 kPa, Fluid (supercritical or subcritical phases)	116.09 ± 1.9
527.21 K, 4500 kPa, Fluid (supercritical or subcritical phases)	126.63 ± 2.4
528.59 K, 5500 kPa, Fluid (supercritical or subcritical phases)	173.63 ± 4.9
529.79 K, 6500 kPa, Fluid (supercritical or subcritical phases)	222.12 ± 5.2
532.59 K, 4500 kPa, Fluid (supercritical or subcritical phases)	114.85 ± 2
533.14 K, 5500 kPa, Fluid (supercritical or subcritical phases)	166.48 ± 4.7
533.59 K, 6500 kPa, Fluid (supercritical or subcritical phases)	210.67 ± 4.8
534.66 K, 4500 kPa, Fluid (supercritical or subcritical phases)	113.71 ± 1.9
535.53 K, 5500 kPa, Fluid (supercritical or subcritical phases)	159.52 ± 4.5
536.07 K, 6500 kPa, Fluid (supercritical or subcritical phases)	205.77 ± 4.8
536.58 K, 3500 kPa, Fluid (supercritical or subcritical phases)	132.72 ± 2.2
540.66 K, 4500 kPa, Fluid (supercritical or subcritical phases)	121.9 ± 2
541.18 K, 5500 kPa, Fluid (supercritical or subcritical phases)	155.19 ± 3.7

speed of sound [m/s]
Conditions	443.46 K	453.54 K	457.54 K	463 K	468.31 K	473.8 K	478.69 K	483.1 K	487.42 K	492.48 K
Gas	140.99 ± 2.5	135.34 ± 2.4	131.58 ± 2.4	125.98 ± 2.3	121.95 ± 2.2	115.5 ± 2.1	108.41 ± 2	103.7 ± 2	98.66 ± 1.9	91.71 ± 1.8
Liquid	384.46 ± 5.4	336.71 ± 4.8	315.85 ± 4.5	290.41 ± 4.1	263.51 ± 3.8	237.38 ± 3.4	210.25 ± 3.1	185.8 ± 2.8	162.27 ± 2.5	135.68 ± 2.1
